Tests used:
plasma cytokines = test: In vivo plasma cytokine induction after single i.v. injection (multiplex ELISA, Luminex); details: single i.v. 1.7mg/kg, Balb/C mice (Fig. 7)
Protocol: Compound 3.3 was conjugated to the engineered light chain C110 and heavy chain C375 of anti-Her2 mAb (mAb3) as described above (mAb3-3.3). Furthermore, the compound was also conjugated to anti-Her2 mAb (mAb2) via inter-chain Cys (mAb2-3.3). A single intravenous injection of 5 mg/kg mAb2-3.3 (DAR 3.8) and 5 mg/kg mAb3-3.3 (DAR 3.6) was administered to Balb/C mice via tail vein injection. Blood samples were collected from the injected animals at 2, 4, 8, and 20 hours post-injection, and plasma cytokines were measured using multiplex ELISA (Luminex).
Compound 3.3 was conjugated to anti-TROP2 mAb4 via inter-chain Cys and to the engineered light chain C110 and heavy chain C375 of anti-TROP2 mAb5, as described above. […] Blood samples were collected from the injected animals at 2, 4, 8, and 20 hours post-injection, and plasma cytokines were measured using multiplex ELISA (Luminex).

STING HAQ = molecular target: T1, STING HAQ (Homo sapiens, UniProt Q86WV6, G230A/H232R/R293Q/R71H); test: 293T STING digitonin reporter assay (HAQ haplotype); assay type: cell-based; details: digitonin permeabilised 293T reporter cells
T1 construct: expressed in transfected cells
T1 sequence (Q86WV6 whole entry R71H/G230A/H232R/R293Q): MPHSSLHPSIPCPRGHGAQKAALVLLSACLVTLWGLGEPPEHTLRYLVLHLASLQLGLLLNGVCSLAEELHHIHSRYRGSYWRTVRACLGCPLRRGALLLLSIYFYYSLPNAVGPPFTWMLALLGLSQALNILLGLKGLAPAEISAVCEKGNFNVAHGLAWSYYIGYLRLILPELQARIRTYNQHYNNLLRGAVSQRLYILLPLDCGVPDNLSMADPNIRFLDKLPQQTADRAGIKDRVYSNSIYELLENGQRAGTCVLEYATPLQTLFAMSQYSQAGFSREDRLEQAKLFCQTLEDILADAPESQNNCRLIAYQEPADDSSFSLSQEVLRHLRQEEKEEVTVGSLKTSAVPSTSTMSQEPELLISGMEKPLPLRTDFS
Protocol: (§1) Digitonin Assay with 293T Reporter Cells. The generation of 293T reporter cells stably expressing different STING protein haplotypes (WT, HAQ, REF, AQ, or Q) was described previously (Novotna et al, J. Med. Chem. 2019,62, 10676). The cells were seeded at a density of 250 000 cells per cm^2 into 96 well white poly(D-lysine) coated plates in 100 µL of DMEM with high glucose supplemented with 10% heat inactivated FBS. Next day, the medium was removed, and compounds were added in 3-fold serial dilutions in a digitonin buffer containing 50 mM HEPES (pH 7.0), 100 mM KCl, 3 mM MgClz, 0.1 mM DTT, 85 mM sucrose, 0.2% (w/w) BSA, 1 mM ATP, 0.1 mM GTP, and 10 µg/mL digitonin A. After 30 min incubation at 37 °C with 5% CO2, the digitonin buffer was removed, cells were washed once with 100 µL of the cultivation medium, and 100 µL of fresh medium was added to each well. The plates with cells were further incubated for 5 h at 37 °C with 5% CO2. Thereafter, 50 µL of the medium was removed, and 30 µL of Bright-Glo Luciferase Assay System reagent was added to each well. […] Nonlinear regression curve fit with standard slope was used for EC50 value calculations. The EC50 value represents CDN concentration that gives half-maximal response of firefly luciferase in the 293T reporter assay.

STING WT = molecular target: T2, STING WT (Homo sapiens, UniProt Q86WV6, H232R); test: 293T STING digitonin reporter assay (WT haplotype); assay type: cell-based; details: digitonin permeabilised 293T reporter cells
T2 construct: expressed in transfected cells
T2 sequence (Q86WV6 whole entry H232R): as the sequence (Q86WV6 whole entry R71H/G230A/H232R/R293Q) above, with H71R, A230G, Q293R counted along it
Protocol: as §1

## Nc1ncnc2c1ncn2[C@@H]1O[C@@H]2OCP(=O)(S)O[C@@H]3[C@H](F)[C@@H](COP(=O)(S)OC[C@H]2[C@H]1F)O[C@H]3n1cnc2c(=O)[nH]cnc21 (single isomer, unassigned) [Compound 2.2]
Plasma cytokines
  plasma cytokine levels: high plasma levels
STING HAQ
  EC50: 20 nM
STING WT
  EC50: 20 nM
